The source of these data is US6472418B1, “Non-peptide NK1 receptors antagonists” (Warner-Lambert Company, priority 1998, dated 2002).

In the first experiment the target is T1, Human NK1 Receptor (Homo sapiens, UniProt P25103).
T1 construct: endogenous in cells; host or cells: Human lymphoma IM9 cells (whole cells)
T1 sequence (P25103 whole entry): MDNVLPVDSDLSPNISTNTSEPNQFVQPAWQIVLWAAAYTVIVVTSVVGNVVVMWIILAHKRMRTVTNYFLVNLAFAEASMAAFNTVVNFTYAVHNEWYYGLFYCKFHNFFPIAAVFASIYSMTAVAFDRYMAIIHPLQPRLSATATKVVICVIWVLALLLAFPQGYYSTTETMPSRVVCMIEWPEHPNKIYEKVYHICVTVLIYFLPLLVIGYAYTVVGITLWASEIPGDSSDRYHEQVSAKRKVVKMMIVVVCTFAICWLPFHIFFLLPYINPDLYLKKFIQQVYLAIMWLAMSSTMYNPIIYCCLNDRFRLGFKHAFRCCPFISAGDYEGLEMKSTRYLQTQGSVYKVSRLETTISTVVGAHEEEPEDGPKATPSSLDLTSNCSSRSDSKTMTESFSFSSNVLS
Nature of the experiment: In Vitro Human NK1 Receptor Binding Assay ([125I]Bolton-Hunter substance P displacement, IM9 cells). The note with it: Table 4; [125I]Bolton-Hunter substance P displacement, human IM9 cells; read-out: IC50 (nM) hNK1. The essentials: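 Test compounds competed with 0.05-0.1 nM [125I]Bolton-Hunter substance P for binding to intact IM9 cells over 50 min at 21° C, pH 7.4 buffer with MnCl2 and peptidase inhibitors. […] [Sar9, Met(O2)11] substance P gave non-specific binding. Bound counts were measured after filtration and fitted iteratively.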
Take `CC(NC(=O)C(C)(Cc1c[nH]c2ccccc12)NCc1ccc2ccccc2c1)c1ccccc1` (stereo not drawn) [compound 309, 3-(1H-Indol-3-yl)-2-methyl-2-[(naphthalen-2-ylmethyl)-amino]-N-(1-phenyl-ethyl)-propionamide]: the IC50 turned out to be 169 nM.

Take `CC(NC(=O)C(C)(Cc1c[nH]c2ccccc12)NCc1ccccn1)c1ccccc1` (stereo not drawn) [compound 310, 3-(1H-Indol-3-yl)2-methyl-N-(1-phenyl-ethyl)-2-[(pyridin-2-ylmethyl)-amino]-propionamide]: the IC50 came to 3320 nM. Same read-out and setting: next, `CC(NC(=O)C(C)(Cc1c[nH]c2ccccc12)NCc1ccc2ccccc2n1)c1ccccc1` (stereo not drawn) [compound 311, 3-(1H-Indol-3-yl)-2-methyl-N-(1-phenyl-ethyl)-2-[(quinolin-2-ylmethyl)-amino]-propionamide]: 88 nM; `CC(NC(=O)C(C)(Cc1c[nH]c2ccccc12)NCc1ccoc1)c1ccccc1` (stereo not drawn) [compound 312, 2-[(Furan-3-ylmethyl)-amino]-3-(1H-indol-3-yl)-2-methyl-N-(1-phenyl-ethyl)-propionamide]: 1820 nM; `CC(NC(=O)C(C)(Cc1c[nH]c2ccccc12)NCc1ccco1)c1ccccc1` (stereo not drawn) [compound 314, 2-[(Furan-2-ylmethyl)-amino]-3-(1H-indol-3-yl)-2-methyl-N-(1-phenyl-ethyl)-propionamide]: 141 nM. `CC(NC(=O)C(C)(Cc1c[nH]c2ccccc12)NCc1cnc2ccccc2c1)c1ccccc1` (stereo not drawn) [compound 315, 3-(1H-Indol-3-yl)-2-methylN-(1-phenyl-ethyl)-2-[(quinolin-3-ylmethyl)-amino]-propionamide]: the IC50 worked out at 1070 nM.

`CC(NC(=O)C(C)(Cc1c[nH]c2ccccc12)NCc1nc2ccccc2[nH]1)c1ccccc1` (stereo not drawn) [compound 316, 2-[(1H-Benzoimidazol-2-ylmethyl)-amino]-3-(1H-indol-3-yl)-2-methyl-N-(1-phenyl-ethyl)-propionamide]: the IC50 is above 10000 nM.

With `COc1ccc2oc(CNC(C)(Cc3c[nH]c4ccccc34)C(=O)NC(C)c3ccccc3)cc2c1` (stereo not drawn) [compound 317, 3-(1H-Indol-3-yl)-2-[(5-methoxy-benzofuran-2-ylmethyl)-amino]-2-methyl-N-(1-phenyl-ethyl)-propionamide], the IC50 is above 10000 nM. Same read-out and setting: next, `CC(NC(=O)C(C)(Cc1c[nH]c2ccccc12)NCc1cncc2ccccc12)c1ccccc1` (stereo not drawn) [compound 318, 3-(1H-Indol-3-yl)-2-[(isoquinolin-4-ylmethyl)-amino]-2-methyl-N-(1-phenyl-ethyl)-propionamide]: 1600 nM; `COc1ccc2cc(CNC(C)(Cc3c[nH]c4ccccc34)C(=O)NC(C)c3ccccc3)oc2c1` (stereo not drawn) [compound 319, 3-(1H-Indol-3-yl)-2-[(6-methoxy-benzofuran-2-ylmethyl)-amino]-2-methyl-N-(1-phenyl-ethyl)-propionamide]: 2100 nM; `CC(NC(=O)C(C)(Cc1c[nH]c2ccccc12)NCc1cccnc1)c1ccccc1` (stereo not drawn) [compound 320, 3-(1H-Indol-3-yl)-2-methyl-N-(1-phenyl-ethyl)-2-[(pyridin-3-ylmethyl)-amino]-propionamide]: 5970 nM.

For the compound `CC(NC(=O)C(C)(Cc1c[nH]c2ccccc12)NCCNC(=O)CN1C(=O)c2ccccc2C1=O)c1ccccc1` (stereo not drawn) [compound 321, 2-{2-[2-(1,3-Dioxo-1,3-dihydro-isoindol-2-yl)-acetylamino]-ethylamino}-3-(1H-indol-3-yl)-2-methyl-N-(1-phenyl-ethyl)-propionamide], the IC50 was determined as 3040 nM. Still for that read-out and setting: next, `CC(NC(=O)C(C)(Cc1c[nH]c2ccccc12)NCC=Cc1ccco1)c1ccccc1` (stereo not drawn) [compound 322, 2-(3-Furan-2-yl-allylamino)-3-(1H-indol-3-yl)-2-methyl-N-(1-phenyl-ethyl)-propionamide]: 91 nM. Still for that read-out and setting: to `CC(NC(=O)C(C)(Cc1c[nH]c2ccccc12)NCc1ccccc1OCc1ccccn1)c1ccccc1` (stereo not drawn) [compound 323, 3-(1H-Indol-3-yl)-2-methyl-N-(1-phenyl-ethyl)-2-[2-(pyridin-2-ylmethoxy)-benzylamino]-propionamide] belongs 3180 nM. The same measure, in the same setting: to `CC(NC(=O)C(C)(Cc1c[nH]c2ccccc12)NCc1ccccc1OCc1cccnc1)c1ccccc1` (stereo not drawn) [compound 324, 3-(1H-Indol-3-yl)-2-methyl-N-(1-phenyl-ethyl)-2-[2-(pyridin-3-ylmethoxy)-benzylamino]-propionamide] belongs 2970 nM; to `CC(NC(=O)C(C)(Cc1c[nH]c2ccccc12)NCc1ccc(C=Cc2ccccc2)o1)c1ccccc1` (stereo not drawn) [compound 325, 3-(1H-Indol-3-yl)-2-methyl-N-(1-phenyl-ethyl)-2-[(5-styryl-furan-2-ylmethyl)-amino]-propionamide], 72 nM. Turning to `CNS(=O)(=O)c1cc(CNC(C)(Cc2c[nH]c3ccccc23)C(=O)NC(C)c2ccccc2)ccc1Cl` (stereo not drawn) [compound 326, 2-(4-Chloro-3-methylsulfamoyl-benzylamino)-3-(1H-indo1-3-yl)-2-methyl-N-(1-phenyl-ethyl)-propionamide], the IC50 was 4830 nM. Same read-out and setting: to `CC(NC(=O)C(C)(Cc1c[nH]c2ccccc12)NCc1ccc(OCCCC(C)(C)C(=O)O)cc1)c1ccccc1` (stereo not drawn) [compound 327, 5-(4-{[2-(1H-Indol-3-yl)-1-methyl-1-(1-phenyl-ethylcarbamoyl)-ethylamino]-methyl}-phenoxy)-2,2-dimethyl-pentanoic acid] belongs above 10000 nM; to `CC(C)C=CCC1=CCC(CNC(C)(Cc2c[nH]c3ccccc23)C(=O)NC(C)c2ccccc2)CC1` (stereo not drawn) [compound 328, 3-(1H-Indol-3-yl)-2-methyl-2-{[4-(4-methyl-pent-2-enyl)-cyclohex-3-enylmethyl]-amino}-N-(1-phenyl-ethyl)-propionamide], above 10000 nM; to `CCOC(=O)Nc1ccccc1CNC(C)(Cc1c[nH]c2ccccc12)C(=O)NC(C)c1ccccc1` (stereo not drawn) [compound 329, (2-{[2-(1H-Indol-3-yl)-1-methyl-1-(1-phenyl-ethylcarbamoyl)-ethylamino]-methyl}-phenyl)-carbamic acid ethyl ester], 4190 nM. As for `CNS(=O)(=O)c1cc(Cl)ccc1CNC(C)(Cc1c[nH]c2ccccc12)C(=O)NC(C)c1ccccc1` (stereo not drawn) [compound 330, 2-(4-Chloro-2-methylsulfamoyl-benzylamino)-3-(1H-indol-3-yl)-2-methyl-N-(1-phenyl-ethyl)-propionamide], the IC50 is 1100 nM. The same measure, in the same setting: next, `CC(NC(=O)C(C)(Cc1c[nH]c2ccccc12)NCc1ccc(OCCN(C)C)cc1)c1ccccc1` (stereo not drawn) [compound 331, 2-[4-(2-Dimethylamino-ethoxy)-benzylamino]-3-(1H-indol-3-yl)-2-methyl-N-(1-phenyl-ethyl)-propionamide]: above 10000 nM; `CC(NC(=O)C(C)(Cc1c[nH]c2ccccc12)NCC(Cc1ccccc1)c1ccccc1)c1ccccc1` (stereo not drawn) [compound 332, 2-(2,3-Diphenyl-propylamino)-3-(1H-indol-3-yl)-2-methyl-N-(1-phenyl-ethyl)-propionamide]: 4940 nM. On the same count and under the same terms, to `CC(NC(=O)C(C)(Cc1c[nH]c2ccccc12)NCc1cc2ccccc2o1)c1ccccc1` (stereo not drawn) [compound 343, 2-[(Benzofuran-2-ylmethyl)-amino]-3-(1H-indol-3-yl)-2-methyl-N-(1-phenyl-ethyl)-propionamide] belongs 13 nM; to `CC(NC(=O)C(C)(Cc1c[nH]c2ccccc12)NCc1cccc(OCc2ccccc2)c1)c1ccccc1` (stereo not drawn) [compound 344, 2-(3-Benzyloxy-benzylamino)-3-(1H-indol-3-yl)-2-methyl-N-(1-phenyl-ethyl)-propionamide], 185 nM; to `CSc1ccc(CNC(C)(Cc2c[nH]c3ccccc23)C(=O)NC(C)c2ccccc2)cc1` (stereo not drawn) [compound 345, 3-(1H-Indol-3-yl)-2-methyl-2-(4-methylsulfanyl-benzylamino)-N-(1-phenyl-ethyl)-propionamide], 609 nM. The same measure, in the same setting: to `CC(NC(=O)C(C)(Cc1c[nH]c2ccccc12)NCc1c2ccccc2cc2ccccc12)c1ccccc1` (stereo not drawn) [compound 346, 2-[(Anthracen-9-ylmethyl)-amino]-3-(1H-indol-3-yl)-2-methyl-N-(1-phenyl-ethyl)-propionamide] belongs above 10000 nM; to `CC(NC(=O)C(C)(Cc1c[nH]c2ccccc12)NCc1ccc(Oc2ccccc2)cc1)c1ccccc1` (stereo not drawn) [compound 347, 3-(1H-Indol-3-yl)-2-methyl-2-(4-phenoxy-benzylamino)-N-(1-phenyl-ethyl)-propionamide], 3380 nM. Consider `CC(NC(=O)C(C)(Cc1c[nH]c2ccccc12)NCc1ccc(-c2ccccc2)cc1)c1ccccc1` (stereo not drawn) [compound 348, 2-[(Biphenyl-4-ylmethyl)-amino]-3-(1H-indol-3-yl)-2-methyl-N-(1-phenyl-ethyl)-propionamide], for which the half-inhibitory concentration (IC50) is 5560 nM. Still for that read-out and setting: to `CC(NC(=O)C(C)(Cc1c[nH]c2ccccc12)NCc1ccc2c(c1)OCO2)c1ccccc1` (stereo not drawn) [compound 349, 2-[(Benzo[1,3]dioxol-5-ylmethyl)-amino]-3-(1H-indol-3-yl)-2-methyl-N-(1-phenyl-ethyl)-propionamide] belongs 356 nM; to `CC(NC(=O)C(C)(Cc1c[nH]c2ccccc12)NCc1ccccc1Sc1ccc(Cl)cc1)c1ccccc1` (stereo not drawn) [compound 350, 2-[2-(4-Chloro-phenylsulfanyl)-benzylamino]-3-(1H-indol-3-yl)-2-methyl-N-(1-phenyl-ethyl)-propionamide], above 10000 nM; to `CC(NC(=O)C(C)(Cc1c[nH]c2ccccc12)NCc1ccc(C=Cc2ccccc2)cc1)c1ccccc1` (stereo not drawn) [compound 351, 3-(1H-Indol-3-yl)-2-methyl-N-(1-phenyl-ethyl)-2-(4-styryl-benzylamino)-propionamide], above 10000 nM.

Still in this experiment, the particulars now being: human NK1 receptor, IM9 cells, [125I]Bolton-Hunter substance P; read-out: IC50 (nM) hNK1.
On to `CC(Cc1c[nH]c2ccccc12)(NCc1cc2ccccc2o1)C(=O)NCc1ccc(F)c(Cl)c1` (stereo not drawn) [compound 191, 2-[(Benzofuran-2-ylmethyl)-amino]-N-(3-chloro-4-fluoro-benzyl)-3-(1H-indol-3-yl)-2-methyl-propionamide], for which the IC50 was found to be 55 nM.

A word on the IC50: it is the concentration that inhibits the measured activity by half.
